# Measured values published in patent EP3574917A1, “ANTI-CANCER AGENT, METHOD FOR SCREENING FOR ANTI-CANCER AGENT, KIT FOR DETERMINATION OF EFFICACY ON CANCER, AND METHOD FOR DETERMINING EFFICACY ON CANCER” (University of Miyazaki, priority 2017, dated 2018).
# Key:
# Assay in all cases: cellular proliferative potential (cell counting kit-8)
# Type in all cases: cell-based
# [1] = tested on: MOLT4; conditions: MOLT4, without the decreased expression of NDRG2, AdOX added at start of culture
# Protocol: (§1) In the following Examples, HTLV-1-uninfected T-cell lymphocytic acute leukemia T-ALL (Jurkat and MOLT4), an HTLV-1-infected cell line (HUT102), an ATLL cell line (KOB), an osteosarcoma cell line (U2OS), and a uterine cancer cell line (HeLa) were used as cell lines. The cell lines described above were cultured in a RPM11640 or DMEM culture solution, to which 10% fetal bovine serum (FBS) supplemented or unsupplemented with IL2 (50 U/mL) was added, under 5% carbon dioxide at 37°C.
# (§2) For each established cell line, 2 ×10^3 cells were cultured on a 96-well plate, and cell counting kit-8 (manufactured by DOJINDO CO., LTD) was added at a predetermined time. The number of cells was quantified based on an absorbance of 450 nm or 490 nm, to evaluate cellular proliferative potential.
# (§3) In addition to HUT102 and KOB, Jurkat and MOLT4 were cultured. At the time of the start of the culture, AdOX (manufactured by Sigma-Aldrich Co. LLC) as a PRMT5 inhibitor was added to each culture medium. Like the Examples 2 described above, cellular proliferative potential was evaluated.
# [2] = tested on: KOB; conditions: KOB (NDRG2 hardly expressed), AdOX added to culture medium at start of culture, over time
# Protocol: as §1, §2, §3
# [3] = tested on: HUT102; conditions: HUT102 (NDRG2 hardly expressed), AdOX added to culture medium at start of culture, over time
# Protocol: as §1, §2, §3
# [4] = tested on: Jurkat; conditions: without the decreased expression of NDRG2, AdOX added at start of culture
# Protocol: as §1, §2, §3
# [5] = tested on: HeLa; conditions: HeLa (NDRG2 hardly expressed), in the presence of AdOX, over time
# Protocol: as §1, §2
# (§4) In the cell lines of a solid cancer, the influence of the decreased expression of a PRMT5 gene was also evaluated in a manner similar to the manner of Example 2. The cellular proliferative potential of the parent lines, shluc cell lines, shPRMT5-3 cell lines, and shPRMT5-4 cell lines of U2OS and HeLa, and an influence on the cellular proliferative potential of a PRMT inhibitor were evaluated.
# [6] = tested on: U2OS; conditions: U2OS (NDRG2 hardly expressed), in the presence of AdOX, over time
# Protocol: as §1, §2, §4
smiles,measurement,setting,value
"Nc1ncnc2c1ncn2[C@@H](C=O)O[C@@H](C=O)CO [AdOX, adenosine-2',3'-dialdehyde]",suppression of cell proliferation,[1],not observed
same,suppression of cell proliferation,[2],exhibited the suppression of cell proliferation in concentration-dependent manners
same,suppression of cell proliferation,[3],exhibited the suppression of cell proliferation in concentration-dependent manners
same,suppression of cell proliferation,[4],not observed
same,suppression of cell proliferation,[5],suppressed cell proliferation in a concentration-dependent manner
same,suppression of cell proliferation,[6],suppressed cell proliferation in a concentration-dependent manner
